# Laboratory results reported in publication PMC9005747, “Application of per-Residue Energy Decomposition to Design Peptide Inhibitors of PSD95 GK Domain” (Frontiers in Molecular Biosciences, 2022).
# Like-named read-outs stand apart in the source and are kept apart here. Non-standard residues stand in square brackets, D forms with d. Primed or numbered codes have the meaning given here. No end group written: not given here. FITC′ = fluorescein isothiocyanate label on the N-terminus; pS = N[C@@H](COP(=O)(O)O)C(=O)O
# How the values were obtained:
# [1] = molecular target: GK domain of PSD95; details: isothermal titration calorimetry assay; ref Zhu et al., 2017; cited from earlier work
# [2] = molecular target: GK domain of PSD95; details: fluorescence polarization assay, cited from earlier work
# Excerpt: page 6: 2. Supplementary Tables Supplementary Table 1.
# [3] = molecular target: T1, His6-tagged PSD95 GK domain (a.a. 531-713) (UniProt P31016 531-713); assay: fluorescence polarisation; direct titration: 10 nM FITC-SAPAP constant, His-GK 0 to 20 uM; 50 mM Tris, 100 mM NaCl, pH 7.5; 384-well plates, 1-h incubation; details: both partners purified
# T1 construct: postsynaptic density protein 95 (PSD95, encoded by DLG4), guanylate kinase (GK) domain, a.a; 531-713; In the MST assay the protein was labelled on its His tag with the RED-Tris-NTA kit; The PDB entries are cited crystal structures of PSD95 GK with peptides; also called His-GK; His-PSD95 GK; source: E. coli BL21 (DE3), purified (Ni-NTA, size-exclusion chromatography); not shown: His6, N-terminal, …
# T1 sequence (P31016 531-713): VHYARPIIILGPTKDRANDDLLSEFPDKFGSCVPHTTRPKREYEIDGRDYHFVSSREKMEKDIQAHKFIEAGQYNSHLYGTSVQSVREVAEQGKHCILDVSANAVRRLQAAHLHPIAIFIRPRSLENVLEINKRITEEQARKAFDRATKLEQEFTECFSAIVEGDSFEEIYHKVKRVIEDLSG
molecule,measurement,setting,value
AARRE[pS]YLKATQPSL [p-SAPAP],Kd,[1],80 ± 10 nM
AELEGGPYSPLGKDYRKAEGEREEEG [MAP1A],Kd,"[2]; ref Xia et al., 2017",12.1 ± 0.2 µM
GRRH[pS]MENLELMKLTPEK [p-LGN],Kd,"[2]; ref Zhu et al., 2011",0.53 ± 0.09 µM
LSRVK[pS]LKKSLRQSF [p-LGL2],Kd,"[2]; ref Zhu et al., 2014",10.2 ± 1.3 µM
RIRREEYRRAINGQSFDLS,Kd,[1],660 ± 130 nM
RIRREEYRRAINGQSMKL,Kd,[1],1860 ± 310 nM
"{FITC′}-AARRE[pS]YLKATQ (phosphorylated SAPAP peptide; SAPAP1 (DLGAP1, GKAP) is the member it names elsewhere; also called FITC-SAPAP; FITC-SAPAP probe; source: synthetic peptide, bought: China Peptides) [FITC-labeled SAPAP peptide FITC-AARRE(pS)YLKATQ]",Kd,[3],4.28 µM
